Key:
[1] = tested on: Jurkat human leukemia T cells; test: Inhibition of Jurkat human leukemia T cell proliferation (MTT reduction); type: cell-based; settings: 100 μg/ml sequence, 48 h, 2.5×10^5 cells/ml
How it was run: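 Read-out is MTT absorbance at 570 nm after 48 h. Sequences of 2 to 45 bases (A, C, G, T) tested at 100 μg/ml against untreated control, with 2.5×10^5 Jurkat cells/ml held at 37° C under 5% CO2.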

[2] = tested on: MCF-7 human breast cancer cells; test: Inhibition of MCF-7 cell proliferation (MTT); type: cell-based; settings: 100 μg/ml, 48 h, 5×10^5 cells/ml
Description: (§1) Cells were seeded in 6 (1 ml/well), 24 (0.5 ml/well) or 96 (0.1 ml/well) well flat-bottom microplates and were maintained at 37° C. in a 5% CO2 atmosphere. Unless stated otherwise, 2.5×10^5 cells/ml were incubated with 0 μg/ml (control) and 100 μg/ml (treated) of 2 to 45 base sequences containing A, C, G and T for 48 h.
(§2) Cell proliferation was measured using dimethylthiazol-diphenyl-tetrazolium (MTT) reduction (Mosman et al. J. Immunol. Methods 65:55, 1983). MTT was measured at a wavelength of 570 nm using a multiplate spectrophotometer reader (ELX800, Bio-TEK Instruments Inc., Winooski, Vt.).
MCF-7 human breast cancer cells are a caspase 3 negative, estrogen-dependent human solid tumor model. MCF-7 cells (5×10^5 cells/ml) were incubated with 3 and 6 base GT sequences (Table 7).

[3] = tested on: LNCaP human prostate cancer cells; test: Inhibition of LNCaP cell proliferation (MTT); type: cell-based; settings: 100 μg/ml, 48 h, 5×10^5 cells/ml
Description: as §1, §2
LNCaP prostate cancer cells are a TGF-beta 1 receptor negative, […], metastatic human solid tumor model. LNCaP cells (5×10^5 cells/ml) were incubated with 6 base GT sequences (Table 9).

[4] = tested on: THP-1 human acute monocytic leukemia cells; test: Cytokine production by THP-1 cells (ELISA); type: cell-based; settings: THP-1, 1×10^6 cells, 100 μg/ml, 48 h; for ↑ IL-12 (fold increase treated vs control cells): p70 complex and free p40
How it was run: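 Read-out is fold increase in supernatant cytokine versus control cells, measured by ELISA (IL-12 ELISA counts p70 complex plus free p40). Unless noted, sequences were tested at 100 μg/ml on 1×10^6 cells, incubated 48 h, 37° C, 5% CO2.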

caspase 3 and caspase 7 = test: Caspase 3 and caspase 7 activation by peptide-sequence constructs in Jurkat cells; type: cell-based, human; settings: 72 h, present-tense example
Description: Reactive carboxylate and reactive amine groups are deprotected subsequent to conjugation,
To determine caspase activation, control and treated cells are washed, fixed, permeabilized and incubated with an FITC-conjugated antibody that recognizes the active form of the caspase (Pharmingen, San Diego, Calif.) using the conditions recommended by the manufacturer. Fluorescence associated with active caspase 3 is analyzed by flow cytometry on a FACSCALIBUR using the program CellQUEST (Becton Dickinson). Alternatively, caspase activation is determined colorimetrically using an assay based on the cleavage of a caspase-specific peptide conjugated to the color reporter molecule p-nitroanilide, which can be quantitated spectrophotometrically at a wavelength of 405 nm.
Jurkat human leukemia T cells are incubated for 72 h with NH2—YVAD-CO-GG(GT)GG, NH2-DEVD-CO-GG(GT)GG, NH2—EGD-COO-GG(GT)GG, NH2-YVAD-CO-[…], NH2-DVED-CO-[…] and NH2—IEGD-CO-[…]. Caspase 3 and caspase 7 activation are determined.

[5] = tested on: PC-3 human prostate cancer cells; test: Inhibition of PC-3 cell proliferation (MTT); type: cell-based; settings: 100 μg/ml, 48 h, 5×10^5 cells/ml
Description: as §1, §2
PC-3 prostate cancer cells are a p53 mutated, androgen-independent human solid tumor model. PC-3 cells (5×10^5 cells/ml) were incubated with 3 and 6 base GT sequences (Table 8).

[6] = tested on: Jurkat human leukemia T cells; test: Apoptosis by phosphatidylserine/annexin V-FITC flow cytometry; type: cell-based; settings: 50 μM sequence
Description: (§3) The redistribution of phosphatidylserine in the plasma membrane during apoptosis was measured by flow cytometry using FITC-conjugated annexin V (BD Pharmingen, San Diego, Calif.). NuMA release into the supernatant was determined using a commercial ELISA kit (Oncogen/Calbiochem, Cambridge, Mass.).
Jurkat human leukemia T cells were incubated with 50 μM of 3, 4, 5, 6 and 7 GT base sequences, a 5 base ACGT sequence, 6 base AG, GG, AGT and CGT sequences and a 7 base GG sequence. […]
Jurkat human leukemia T cells were incubated with GT-rich or AC-rich sequences derived from the murA gene of Mycobacterium phlei (GenBank: Accession Number X99776). Inhibition of proliferation was measured by the reduction of MTT as in Example 3, cell cycle arrest was detected by flow cytometry using propidium iodide as in Example 21 and apoptosis was evaluated by flow cytometry using annexin-V-FITC as in Example 23.

[7] = tested on: Jurkat human leukemia T cells; test: NuMA release into supernatant (ELISA); type: cell-based; settings: Jurkat, 50 μM sequence
Description: as §3
Jurkat human leukemia T cells were incubated with 50 μM of 3, 4, 5, 6 and 7 GT base sequences, a 5 base ACGT sequence, 6 base AG, GG, AGT and CGT sequences and a 7 base GG sequence.
Jurkat human leukemia T cells (1×10^6/ml) were incubated with 6 and 27 GT base sequences (Table 32). NuMA was determined as in Example 23.
Jurkat human cell leukemia T cells were incubated for 24 h with 6 base GT SEQ ID NO:25, complementary 6 base AC SEQ ID NO:79, and 6 base GT SEQ ID NO:25+6 base AC SEQ ID NO:79. GT SEQ ID NO:25 and AC SEQ ID NO:79 were hybridized by mixing the sequences (1:1) and heating for 10 minutes at 65° C. As controls, GT SEQ ID NO:25 and AC SEQ ID NO:79 were heated for 10 minutes at 65° C. (Table 33). Apoptosis was evaluated as in Example 23.

[8] = tested on: D-17 canine osteosarcoma cells; test: Inhibition of D-17 cell proliferation (MTT); type: cell-based; settings: 100 μg/ml, 48 h, 5×10^5 cells/ml
Description: as §1, §2
(§4) D-17 canine osteosarcoma cells and CF-51 canine mammary gland cancer cells are solid tumor models. D-17 canine osteosarcoma cells (5×10^5 cells/ml) (Table 20) and CF-51 canine mammary gland cancer cells (5×10^5 cells/ml) (Table 21) were incubated with 6, 9, 17, 27 and 33 base GT-sequences and with a 15 base ACG sequence.

[9] = tested on: CF-51 canine mammary gland cancer cells; test: Inhibition of CF-51 cell proliferation (MTT); type: cell-based; settings: 100 μg/ml, 48 h, 5×10^5 cells/ml
Description: as §1, §2, §4

GGTGGG [SEQ ID NO:24 phosphorothioate]
% INHIBITION of Jurkat human leukemia T cell proliferation [1]: 6% | % INHIBITION of MCF-7 human breast cancer cell proliferation [2]: 12% | % INHIBITION of LNCaP human prostate cancer cell proliferation [3]: −17% | ↑ IL-12 (fold increase treated vs control cells) [4]: −0.1x

GTGTGT [SEQ ID NO:10 phosphorothioate]
% INHIBITION of Jurkat human leukemia T cell proliferation [1]: 0% | % INHIBITION of MCF-7 human breast cancer cell proliferation [2]: 12% | % INHIBITION of LNCaP human prostate cancer cell proliferation [3]: −20% | ↑ IL-12 (fold increase treated vs control cells) [4]: −0.2x

NH2-DEVD-CO-GG(GT)GG [NH2-DEVD-CO-GT]
processing of inactive caspase 3 and caspase 7 to active forms (caspase 3 and caspase 7): induce processing of inactive caspase 3 to active caspase 3 and of inactive caspase 7 to active caspase 7

NH2-DVED-CO-AACCACAAGCCCAAC [NH2-DVED-CO-ACG]
processing of inactive caspase 3 and caspase 7 to active forms (caspase 3 and caspase 7): do not induce processing of inactive pro-caspase 3 to active caspase 3 or of inactive caspase 7 to active caspase 7

NH2-YVAD-CO-AACCACAAGCCCAAC [NH2—YVAD-CO-ACG]
processing of inactive caspase 3 and caspase 7 to active forms (caspase 3 and caspase 7): do not induce processing of inactive pro-caspase 3 to active caspase 3 or of inactive caspase 7 to active caspase 7

NH2—EGD-COO-GG(GT)GG [NH2—IEGD-COO-GT]
processing of inactive caspase 3 and caspase 7 to active forms (caspase 3 and caspase 7): induce processing of inactive caspase 3 to active caspase 3 and of inactive caspase 7 to active caspase 7

NH2—IEGD-CO-AACCACAAGCCCAAC [NH2—IEGD-CO-ACG]
processing of inactive caspase 3 and caspase 7 to active forms (caspase 3 and caspase 7): do not induce processing of inactive pro-caspase 3 to active caspase 3 or of inactive caspase 7 to active caspase 7

NH2—YVAD-CO-GG(GT)GG [NH2—YVAD-CO-GT]
processing of inactive caspase 3 and caspase 7 to active forms (caspase 3 and caspase 7): induce processing of inactive caspase 3 to active caspase 3 and of inactive caspase 7 to active caspase 7

TGT (chemistry not given here) [SEQ ID NO:7]
% INHIBITION of Jurkat human leukemia T cell proliferation [1]: 22% | % INHIBITION of MCF-7 human breast cancer cell proliferation [2]: −6% | % INHIBITION of PC-3 human prostate cancer cell proliferation [5]: 8% | % of cells in apoptosis (positive for PS/A-V staining) [6]: 10% | % NuMA released (treated vs untreated cells) [7]: 35% | ↑ IL-6 (fold increase treated vs control cells) [4]: 2.7x

TGTGTG [SEQ ID NO:9 phosphorothioate] (phosphorothioate backbone)
% INHIBITION of Jurkat human leukemia T cell proliferation [1]: −17% | % INHIBITION of MCF-7 human breast cancer cell proliferation [2]: 6% | % INHIBITION of LNCaP human prostate cancer cell proliferation [3]: −16% | ↑ IL-12 (fold increase treated vs control cells) [4]: −0.1x

TGTGTGTGTGTGTGTGTG (unmodified DNA) [SEQ ID NO:17]
% INHIBITION of Jurkat human leukemia T cell proliferation [1]: 56% | % INHIBITION of D-17 canine osteosarcoma cell proliferation [8]: 8% | % INHIBITION of CF-51 canine mammary gland cancer cell proliferation [9]: 8% | ↑ IL-6 (fold increase treated vs control cells) [4]: 2.2x

TTGTTT [SEQ ID NO:26 phosphorothioate]
% INHIBITION of Jurkat human leukemia T cell proliferation [1]: 0% | % INHIBITION of MCF-7 human breast cancer cell proliferation [2]: 6% | % INHIBITION of LNCaP human prostate cancer cell proliferation [3]: −1% | ↑ IL-12 (fold increase treated vs control cells) [4]: −0.1x

TTTGTT [SEQ ID NO:23 phosphorothioate] (phosphorothioate backbone)
% INHIBITION of Jurkat human leukemia T cell proliferation [1]: 4% | % INHIBITION of MCF-7 human breast cancer cell proliferation [2]: 8% | % INHIBITION of LNCaP human prostate cancer cell proliferation [3]: −11% | ↑ IL-12 (fold increase treated vs control cells) [4]: 0.1x
